Entries after “also recorded” stand apart in the source; their conditions may differ.

The subject of test [1] is MTA1-RbAp48 complex. The test is described as follows: Competition pulldown: FOG1-(1–15) peptide added to MTA1-FLAG-RbAp48 complex. The format is binding, human. The following applies: FLAG-RbAp48 on anti-FLAG beads; for effect of FOG1 peptide on MTA1-RbAp48 interaction: increasing amounts of FOG1-(1–15) peptide. The method, then: RbAp48 and MTA1 constructs were in vitro translated in the presence of ^35S-labeled methionine using the TNT Quick Coupled Transcription/Translation kit (Promega) according to the manufacturer's instructions. In vitro translated ^35S-labeled FLAG-RbAp48 (20 μl) was immobilized onto agarose beads conjugated to anti-FLAG (M2) antibodies (Sigma) in binding buffer (50 mM Tris, pH 7.5, 300 mM NaCl, 0.5% Triton X-100, complete protease inhibitor mixture tablet (Roche Applied Science), and 1 mM DTT). The mixture was incubated with in vitro translated ^35S-labeled-MTA1 fragments (40 μl) at 4 °C for 2 h. The beads were then washed five times with binding buffer. Anti-FLAG beads alone were used as a negative control. Complexes were resolved by SDS-PAGE and visualized by autoradiography.
(§1) The structural data provide clear evidence that histone H4 and MTA1 bind mutually exclusively to RbAp48. […] Competition-binding experiments were performed to assess whether full-length MTA1 might inhibit the interaction of RbAp48 with H3 or FOG1 peptides and to confirm that H4 and MTA1 bind mutually exclusively to RbAp48. GST-H4-(1–48) was expressed in bacteria, immobilized onto glutathione beads, and used to pull down RbAp48 in the absence and presence of full-length MTA1 (Fig. 7A). In a complementary experiment (Fig. 7B), in vitro translated FLAG-RbAp48 was immobilized on anti-FLAG beads and used to pull down MTA1 in the absence and presence of histone H4-(1–48).
(§2) FIGURE 7. […] A, pulldown showing the binding of in vitro translated ^35S-labeled RbAp48 to GST-histone H4-(1–48) (immobilized on glutathione beads) in the absence and presence of in vitro translated MTA1. B, pulldown showing the binding of in vitro translated ^35S-labeled MTA1 to FLAG-RbAp48 (immobilized on anti-FLAG beads) in the absence and presence of histone H4-(1–48). C, pulldown assays showing the effect of adding increasing amounts of FOG1-(1–15) peptide to a complex formed between in vitro translated ^35S-labeled FLAG-RbAp48 (immobilized on anti-FLAG beads) and in vitro translated ^35S-labeled full-length MTA1 or MTA1-(530–715). […]

A further test concerns the target RbAp46. The following applies: for RbAp46; ref [16]; cited from earlier work.
Test [2] deals with MTA1-RbAp48 complex. The test is described as follows: Competition pulldown: FLAG-RbAp48 pulls down MTA1 in absence and presence of histone H4-(1–48). The format is binding, human. The following applies: FLAG-RbAp48 on anti-FLAG beads, in vitro translated 35S-labeled MTA1, absence and presence of histone H4-(1–48). The method, then: as §1, §2
The subject of another test is RbAp46/48. The following applies: GST pulldown; ref [47]; cited from earlier work. From the text:
Previous studies using GST pulldown assays have mapped the domains that mediate the interaction between MTA1/2 and RbAp46/48. […] Our crystallographic and biochemical data reveal that a short motif near the C-terminal end of MTA1 is able to bind ind ...

In test [3] the target is T1, RbAp48 (Homo sapiens, UniProt Q09028).
T1 construct: made in house; host or cells: insect cells
T1 sequence (Q09028 whole entry): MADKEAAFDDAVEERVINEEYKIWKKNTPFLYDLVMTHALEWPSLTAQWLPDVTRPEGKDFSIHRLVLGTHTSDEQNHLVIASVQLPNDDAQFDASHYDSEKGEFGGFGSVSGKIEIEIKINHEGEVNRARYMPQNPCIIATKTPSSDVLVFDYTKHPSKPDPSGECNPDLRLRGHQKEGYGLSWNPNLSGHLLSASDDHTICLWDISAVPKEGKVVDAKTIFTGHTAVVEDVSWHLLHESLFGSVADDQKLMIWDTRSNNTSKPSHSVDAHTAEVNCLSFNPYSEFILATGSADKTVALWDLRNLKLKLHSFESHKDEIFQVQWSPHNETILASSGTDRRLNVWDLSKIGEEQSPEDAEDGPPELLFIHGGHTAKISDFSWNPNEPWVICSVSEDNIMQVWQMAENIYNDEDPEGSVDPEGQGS
The test is described as follows: Isothermal titration calorimetry (ITC) of MTA1 peptides binding to RbAp48. The following applies: MicroCal iTC200, 25 °C, 20 mM Tris, pH 7.5, 150 mM NaCl, MTA1 peptide (250 μM) titrated into RbAp48 (25 μM, 200 μl), 20 injections of 2 μl, single-site 1:1 fit, representative measurement, standard error from single curve fit, each titration in duplicate, read-out: dissociation constant (KD). As to the method:
pcDNA3 constructs were expressed in vitro in the presence of [^35S]methionine. […] GST-H4-(1–48) was expressed and purified by glutathione affinity chromatography as described previously ([16]). Recombinant RbAp48 was expressed and purified from insect cells as described previously ([17]).
ITC measurements were carried out at 25 °C using a MicroCal iTC200 titration calorimeter. […] The reference power was set to 2 μcal/s, and the cell was stirred continuously at 1000 rpm. The evolved heats were integrated and normalized for protein concentration.

The test system of test [4] is RbAp46 mutant (E356Q, D357N, E359Q, D360N, L30Y). The following applies: D360N and L30Y; cited from earlier work.
Test [5] concerns the target T1, RbAp48. In words: GST pulldown of in vitro translated 35S-RbAp48 by GST-MTA1 fragments. The class given is binding. The note with it: GST-MTA1 fusion on glutathione-Sepharose beads with in vitro translated 35S-labeled RbAp48, 2 h, 4 °C; SDS-PAGE and autoradiography. From the text:
FLAG-tagged human RbAp48 (Uniprot: Q09028) was constructed by PCR and cloned into pcDNA3. MTA1 constructs (residues 1–250, 230–550, and 530–715) were generated by PCR amplification of the human gene (Uniprot: Q13330) and cloned into pcDNA3. MTA1 constructs (residues 530–635, 625–715, 643–695, and 656–686) were created by PCR amplification from codon-optimized sequences for bacterial expression (GenScript) and cloned into pGEX-6P with an N-terminal GST tag.
pcDNA3 constructs were expressed in vitro in the presence of [^35S]methionine. GST-MTA1 constructs were expressed in the BL21 strain of Escherichia coli and induced with 0.4 mM isopropyl 1-thio-β-D-galactopyranoside. The culture was incubated with shaking at 25 °C overnight, and the protein was subsequently purified by glutathione affinity chromatography. GST-H4-(1–48) was expressed and purified by glutathione affinity chromatography as described previously ([16]). Recombinant RbAp48 was expressed and purified from insect cells as described previously ([17]).
GST pulldown assays were performed by incubating equal amounts of GST or GST-MTA1 fusion proteins immobilized on glutathione-Sepharose beads (Amersham Biosciences) with in vitro translated ^35S-labeled RbAp48. The mixtures were incubated for 2 h at 4 °C and washed 5 times with binding buffer. Complexes were resolved by SDS-PAGE and visualized by autoradiography.

With “FOG1-(1–15): peptide (residues 1–15) derived from the co-regulator FOG1”, the “effect of FOG1 peptide on MTA1-RbAp48 interaction” value was “The same result was observed” with MTA1-RbAp48 complex [1] (C-terminal MTA1 fragment (residues 530–715)) and “unable to interfere with the MTA1-RbAp48 interaction” with MTA1-RbAp48 complex [1] (full-length MTA1). Moreover, the “competition for binding to RbAp48 (Fig. 7 title)” value in the test on MTA1-RbAp48 complex [1] (Fig. 7, full-length MTA1 or MTA1-(530–715)) is “do not compete for binding to RbAp48”. Consider H4-(1–48): histone H4 residues 1–48, for which the Kd on RbAp46 was 1000 nM. Also, the “competition of histone H4 with MTA1 for RbAp48” value with MTA1-RbAp48 complex [2] was “compete for the same binding surface on RbAp48”. “GATA-type zinc finger domain of MTA1 (residues 392–448): predicted GATA-type zinc finger domain of MTA1 (ACESCYTTQSYQWYSWGPPNMQCRLCASCWTYWKKYGGLKMPTRLDGERPGPNRSNM; GATA-type zinc finger; UniProt Q13330 392-448, looked up, fragment)”: the “recognition of RbAp46/48” value in the test with RbAp46/48 was “sufficient to recognize RbAp46/48”. Consider “Ac-KLLSSSETKRAARRPYKPIALRQSQA-NH2 [MTA1-(670–695)]”, for which, at RbAp48 [3], the Kd is 50 ± 7 nM. Turning to “GST-tagged H4 (residues 1–48): GST-H4-(1–48) expressed in bacteria and purified by glutathione affinity chromatography”, the “effect of RbAp46 mutations on interaction with H4” value in test [4] was “abrogate its interaction”. Take `CC[C@H](C)[C@H](NC(=O)[C@H](CCCCN)NC(=O)[C@H](CCCNC(=N)N)NC(=O)[C@@H](NC(=O)[C@H](CCC(=O)O)NC(=O)[C@H](CCC(=O)O)NC(=O)[C@@H](NC(=O)[C@H](C)NC(=O)[C@H](CCSC)NC(=O)[C@H](Cc1ccc(O)cc1)NC(=O)[C@H](Cc1ccccc1)NC(=O)[C@@H](NC(=O)[C@H](CC(=O)O)NC(C)=O)C(C)C)[C@@H](C)O)[C@@H](C)O)C(=O)N[C@@H](CCCNC(=N)N)C(=O)N[C@@H](CCCCN)C(=O)N[C@@H](CC(C)C)C(=O)N[C@@H](CC(C)C)C(=O)N[C@@H](CO)C(=O)N[C@@H](CO)C(=O)N[C@@H](CO)C(=O)N[C@@H](CCC(=O)O)C(=O)N[C@H](C(=O)N[C@@H](CCCCN)C(=O)N[C@@H](CCCNC(=N)N)C(=O)N[C@@H](C)C(=O)N[C@@H](C)C(=O)N[C@@H](CCCNC(=N)N)C(=O)N[C@@H](CCCNC(=N)N)C(=O)N1CCC[C@H]1C(=O)N[C@@H](Cc1ccc(O)cc1)C(=O)N[C@@H](CCCCN)C(N)=O)[C@@H](C)O` [MTA1-(656–686)]: the “binding to RbAp48 in GST pulldown” value on RbAp48 [5] is given as “sufficient to bind RbAp48; also recorded: shortest fragment of MTA1 capable of pulling down in vitro translated RbAp48”.

(Values after PMC4139204, “Insight into the Architecture of the NuRD Complex” (The Journal of Biological Chemistry, 2014).)
